Reference: US20260000079A1, “COMPOSITIONS AND METHODS FOR MODULATING IMMUNITY IN PLANTS” (BOYCE THOMPSON INSTITUTE FOR PLANT RESEARCH, INC., priority 2019, published 2026)

Columns and labels:
[1] = tested on: M. incognita J2 larvae; test: Quantitative chemotaxis population assay (worm attraction assay); assay type: in vivo, Meloidogyne incognita; conditions: 6-cm Petri dish, larvae counted after 4 hours
Method: FIG. 6A provides a graph of the number of nematodes touching the root tips of Arabidopsis wildtype and acx1acx5 treated with 50 nM ascr #18 or ascr #9 for 48 hours before transfer into 12-well plates containing Pluronic® F-127 gel with ˜200 freshly hatched M. incognita J2 larvae. Larvae touching the terminal part of roots were counted at 6 hours after seedling transfer. Data are average±s.d. (n=12). FIG. 6B provides a schematic of a Petri dish as shown in the plate layout. For FIG. 6C, the indicated concentrations of ascr #18, ascr #9, or ascr #18/ascr #9 mixtures were placed on one side with mock solutions on the other side of the 6-cm Petri dish. Subsequently, approximately 100 freshly hatched M. incognita J2 larvae were placed in the center of the plate. Larvae in the indicated scoring areas were counted after 4 hours. Data are averages±s.d. (n=12), **P≤0.003; two-tailed t-test. FIG. 6D provides the attraction index for different concentrations of ascr #18, ascr #9, or ascr #18/ascr #9 mixtures measured using the layout shown in FIG. 6C. Data are averages±SEM (n=12), **P≤0.002; two-tailed t-test.
Ascarosides were dissolved in ethanol to prepare millimolar stock solutions. […]
Chemotaxis plates were prepared by pouring 8 mL of 2% bacto-agar (BD Biosciences) into 6-cm Petri dishes. […] Worms that remained in the center 0.5-cm-wide strip were not counted. […]

[2] = tested on: Arabidopsis root exudates; test: LC-MS of root exudates of ascr #18-treated Arabidopsis seedlings; assay type: in vivo, Arabidopsis thaliana
Method: Data are average±SEM (n=6), n.d.=not detected. […] Exudates from approximately 40 seedlings were collected in distilled water and pooled. Abundances of ascarosides are shown as the peak area, as measured by LC-MS. Data are average±SEM (n=3); n.d.=not detected. FIGS. 5C and 5D show the relative abundances of ascarosides in root exudates of eight-day old tomato seedlings treated with 10 nM (FIG. 5C) or 1000 nM (FIG. 5D) ascr #18 for 6 hours. Exudates from approximately 10 seedlings were collected in distilled water and pooled. Abundances of ascarosides are shown as the peak area, as measured by LC-MS. Data are average±SEM (n=3); n.d.=not detected. FIG. 5E provides the relative abundances of ascr #10, ascr #1, and ascr #9 in the growth media of eight-day old tomato seedlings supplemented with 1 μM ascr #18. Ten-gram media samples were collected at different time points over a 48 hour period for metabolome extraction. Abundances of ascarosides are shown as the peak area, as measured by LC-MS.
To test this possibility, root-secreted metabolites of ascr #18- and mock-treated Arabidopsis were compared (FIG. 5A). For this experiment, 10-day old Arabidopsis seedlings were treated in growth media supplemented with ascr #18 for 6 hours prior to collection of exudates from roots submerged in water. […] Analogous results were obtained in experiments with tomato roots (FIG. 5C, 5D).

[3] = tested on: Arabidopsis leaves; test: LC-MS time course of Arabidopsis leaves infiltrated with ascr #18; assay type: in vivo, Arabidopsis thaliana; conditions: Arabidopsis leaves infiltrated with 1 μM ascr #18
From the text: FIG. 2A provides LC-MS analysis of tomato roots treated with ascr #18 or ^13C2-labeled ascr #18. Plants treated with ^13C2-labeled ascr #18 show peaks at 333.21932 and 249.12542, representing [M-H]^− of ^13C2-ascr #18 and ^13C2-ascr #9, but not at 331.21261 and 247.11871, which correspond to [M-H]^− of ascr #18 and ascr #9, and vice versa. Structures of ascr #18 and ascr #9 indicating the positions of the ^13C2-label are shown above ion chromatograms. Peaks marked with an asterisk represent unrelated peaks. FIGS. 2B and 2C provide graphs showing the relative abundances of ascr #18 and ascr #9, respectively, as measured by LC-MS. Four-week old Arabidopsis leaves were infiltrated with 1 μM ascr #18, and leaf tissue were harvested for LC-MS analyses over a period of 96 hours post infiltration of ascr #18. Data are averages±SEM (n=3). FIG. 2D provides LC-MS analyses of tomato leaves infiltrated with 1 μM ascr #18. Tissues were collected over a 12 hour period. Abundances of ascr #18 and ascr #9 are shown as the peak area, as measured by LC-MS. […] To test whether microbes are required for the observed metabolic transformations, leaves of 4-week old Arabidopsis plants were directly infiltrated with ascr #18 and leaf tissue was subsequently harvested for analysis by LC-MS as above. […] About 50% of ascr #18 was metabolized during the first 12 hours, during which time concomitant accumulation of ascr #9 was observed. Formation of ascr #9 was also observed in leaves of 4-week old tomato plants infiltrated with ascr #18 (FIG. 2D).

SMILES | chemotaxis behavior of M. incognita J2 larvae (attraction index) [1] | ascarosides in root exudates of acx1acx5 ([2]; acx1acx5 seedlings, 10 nM ascr #18 for 6 hours) | ascr #18 metabolized ([3]; first 12 hours) | relative abundance among root-excreted ascr #18 metabolites ([2]; Arabidopsis) | secretion of ascr #18 metabolites via roots ([2]; ascr #18-treated wildtype, 6 hours treatment) | time of peak ascr #9 concentration post-infiltration [3] [h] | ascr #9 concentration at 96 hours ([3]; 96 hours)
CC1O[C@@H](O[C@@H](C)CCCCCCCCC(=O)O)C(O)C[C@H]1O (stereo in doubt) [ascr #18, (10R)-(3′R,5′R-dihydroxy-6′S-methyl-(2H)-tetrahydropyran-2-yloxy)-undecanoic acid] | no significant effect | larger amounts of residual ascr #18 than in wildtype | About 50% | – | – | – | –
C[C@H](CCC(=O)O)O[C@@H]1O[C@@H](C)[C@H](O)C[C@H]1O [ascr #9] | no significant effect | – | – | most abundant | secretion | ≤ 12 | very low levels
